Data from ChEMBL document CHEMBL1146377, “Antitrypanosomal activity of quaternary naphthalimide derivatives” (Bioorg Med Chem Lett, 2007).

Tests used:
[1] = system: Trypanosoma brucei brucei; assay: Antitrypanosomal activity against Trypanosoma brucei brucei after 48 hrs; format: functional, organism-based
[2] = Cytotoxicity against J774.1 cells after 48 hrs; format: cell-based; conditions: Mus musculus, J774.1, 48 h

SMILES | IC50 [1] | IC50 [2]
CC(C)(CN1C(=O)c2cccc3cccc(c23)C1=O)C[N+](C)(C)CCCCCC[N+](C)(C)CC(C)(C)CN1C(=O)c2cccc3cccc(c23)C1=O | 1.17 µM | > 100 µM
Cc1ccc2c(c1)C(=O)N(CCC[N+](C)(C)CCCCCC[N+](C)(C)CCCN1C(=O)c3cccc4cccc(c34)C1=O)C2=O | 27.9 µM | > 100 µM
CC(C)(CN1C(=O)c2cccc3ccc([N+](=O)[O-])c(c23)C1=O)C[N+](C)(C)CCCCCC[N+](C)(C)CCCN1C(=O)c2ccccc2C1=O | 8.78 µM | > 100 µM
CCC[N+](C)(C)CC(C)(C)CN1C(=O)c2cccc3cccc(c23)C1=O | 1.2 µM | > 100 µM
CC(C)(CN1C(=O)c2cccc3cc([N+](=O)[O-])cc(c23)C1=O)C[N+](C)(C)CCCCCC[N+](C)(C)CCCN1C(=O)c2ccccc2C1=O | 22.9 µM | > 100 µM
CC(C)(CN1C(=O)c2cccc3cccc(c23)C1=O)C[N+](C)(C)CCCCCC[N+](C)(C)CCCN1C(=O)c2cccc3cccc(c23)C1=O | 4.27 µM | > 100 µM
Cc1ccc2c(c1)C(=O)N(CCC[N+](C)(C)CCCCCC[N+](C)(C)CC(C)(C)CN1C(=O)c3cccc4cccc(c34)C1=O)C2=O | 4.62 µM | > 100 µM
CC(C)(CN1C(=O)c2cccc3cccc(c23)C1=O)C[N+](C)(C)CCCCCCBr | 0.69 µM | > 100 µM
Cc1ccc(C(=O)Nc2ccc(S(=O)(=O)O)c3cc(S(=O)(=O)O)cc(S(=O)(=O)O)c23)cc1NC(=O)c1cccc(NC(=O)Nc2cccc(C(=O)Nc3cc(C(=O)Nc4ccc(S(=O)(=O)O)c5cc(S(=O)(=O)O)cc(S(=O)(=O)O)c45)ccc3C)c2)c1 [SURAMIN HEXASODIUM] | 0.3 µM | –
N=C(N)c1ccc(OCCCCCOc2ccc(C(=N)N)cc2)cc1 [PENTAMIDINE ISETHIONATE] | 0.0027 µM | –
NCCC[C@](N)(C(=O)O)C(F)F [EFLORNITHINE] | 22.9 µM | –
CC(C)(CN1C(=O)c2cccc3ccc(N)c(c23)C1=O)C[N+](C)(C)CCCCCC[N+](C)(C)CCCN1C(=O)c2ccccc2C1=O | 5.95 µM | > 100 µM
CN(CCCCCCN(C)CCCN1C(=O)c2cccc3cccc(c23)C1=O)CCCN1C(=O)c2cccc3cccc(c23)C1=O | 0.03 µM | 3.24 µM
CC(C)(CN1C(=O)c2cccc3cc(N)cc(c23)C1=O)C[N+](C)(C)CCCCCC[N+](C)(C)CCCN1C(=O)c2ccccc2C1=O | 24.2 µM | > 100 µM
